The values that follow come from PMC12629169, “Antiaging, Wound‐Healing Properties and Chemical Characterization of Crude Hydroalcoholic Extract and Fractions of Myrcia neoobscura” (Chemistry & Biodiversity, 2025).

The experiment deals with T1, collagenase.
T1 construct: gene colG
Briefly: ninhydrin colorimetric gelatin hydrolysis. Type of experiment: biochemical. As to conditions: gelatin substrate, Tris-HCl pH 7.5, 5 mM CaCl2, 1 µM ZnCl2, 37°C.

Values after ≈ are worked out from the molar mass of the structure shown.

Take `O=C(O)c1cc(O)c(O)c(O)c1` [compound 1, gallic acid]: the IC50 (usually the concentration that inhibits the measured activity by half) is 108.88 ± 12.71 µg/mL (≈ 640 µM).
